According to paper PMC11768629, “Potential Interaction of Pinocembrin with Drug Transporters and Hepatic Drug-Metabolizing Enzymes” (Pharmaceuticals, 2025):
Values joined by “and” are separate entries in the source; they are usually repeats but may differ in a detail not shown here. Identical values can stand only once. Like-named read-outs stand apart in the source and are kept apart here.

Tests used:
[1] = parameters: method as in PMID 25814318; details: cited from earlier work
OATP2B1 = system: OATP2B1; parameters: method as in PMID 28745105; details: transfected renal cells; read-out: IC50 on OATP2B1-mediated rosuvastatin uptake; cited from earlier work
CYP2D6 = system: CYP2D6; parameters: method as in PMID 34069400, doi:10.5562/cca3652, PMID 26626242; details: cited from earlier work
CYP2C9 = biological target: T1, CYP2C9 (Homo sapiens, UniProt P11712); experiment: Cell-free CYP450 inhibition assay, CYP2C9; format: biochemical; details: cell-free fluorescent probe assay, BACULOSOMES
T1 construct: purchased Life Technologies
Experimental: (§1) To determine whether pinocembrin influences the catalytic activity of CYP450 enzymes, fluorescent probe reaction assays were performed using varying concentrations of pinocembrin. […] In addition, molecular docking was conducted to better understand the binding mode and interactions between pinocembrin and human CYP2C19.
(§2) The CYP450 inhibitory activity of pinocembrin was determined using a P450 screening kit (Life Technologies; Carlsbad, CA, USA). Varied concentrations of pinocembrin were prepared in methanol. […] The fluorescence intensities were monitored every minute for 60 min at room temperature. The percentage of inhibition was calculated according to the following equation: % Inhibition=(1−X−B/A−B)×100% where X is the fluorescence intensity observed in the presence of pinocembrin.

OATP1A2 = system: OATP1A2; parameters: method as in PMID 28745105; details: transfected renal cells; cited from earlier work
CYP2B6 = biological target: T2, CYP2B6 (Homo sapiens, UniProt P20813); experiment: Cell-free CYP450 inhibition assay, CYP2B6; format: biochemical; details: cell-free fluorescent probe assay, BACULOSOMES
T2 construct: purchased Life Technologies
Experimental: as §1, §2

P-gp = details: cited from earlier work
hOCT1 = biological target: T3, hOCT1 (Homo sapiens, UniProt O15245); experiment: Cis-inhibition assay, 3H-MPP+ uptake in hOCT1-CHO-K1 cells; format: cell-based; details: pinocembrin
T3 construct: host or cells: CHO-K1
Experimental: (§3) Next, the effects of pinocembrin on the transport function of renal drug transporters, including hOAT1, hOAT3, hOCT1, hOCT2, hMATE1, and hMATE2, were determined.
(§4) A cell monolayer comprising hOAT1-MDCK, hOAT3-MDCK, hOCT1-CHO-K1, hOCT2-CHO-K1, hMATE1-CHO-K1, hMATE2-CHO-K1, and mock cells were utilized for the uptake experiments. The cells were washed three times with a buffer containing (in mM) 140 NaCl, 5 KCl, 0.4 MgSO4, 0.5 MgCl2, 1 CaCl2, 0.3 Na2HPO4, 0.4 KH2PO4, 6 D-glucose, and 4 NaHCO3 at pH 7.4 and incubated at 37 °C for 15 min. After incubation, the hOAT1-MDCK and hOAT3-MDCK cells were incubated for 10 min with ^3H-PAH and ^3H-estrone sulfate, a substrate of hOAT1 and hOAT3, respectively. The hOCT1-CHO-K1 and hOCT2-CHO-K1 cells were incubated with ^3H-MPP^+, a substrate of OCT1 and OCT2, for five minutes. The functions of MATE1 and MATE2 were determined by incubating the hMATE1-CHO-K1 and hMATE2-CHO-K1 cells with a buffer containing ^3H-MPP^+, a substrate of MATE1 and MATE2, at pH 8.5 for five minutes. The cells were washed three times with an ice-cold buffer to stop the transport function. The cells were lyzed with 0.4 N NaOH for at least four hours. The samples were collected and transferred to vials containing a liquid scintillation cocktail to measure radioactivity by a β-counter (Packard BioScience, Wellesley, MA, USA). […]

hOCT2 = biological target: T4, hOCT2 (Homo sapiens, UniProt O15244); experiment: Cis-inhibition assay, 3H-MPP+ uptake in hOCT2-CHO-K1 cells; format: cell-based; details: pinocembrin
T4 construct: host or cells: CHO-K1
Experimental: as §3, §4

BCRP = biological target: T5, BCRP (Homo sapiens, UniProt Q9UNQ0); experiment: BCRP-mediated 3H-estrone sulfate transepithelial transport in Caco-2 cell monolayers; format: cell-based; details: pinocembrin, compared with vehicle control
T5 construct: Caco-2 cell monolayers, which express both P-gp and BCRP; host or cells: Caco-2
Experimental: The interactions of pinocembrin with P-gp and BCRP were determined by the measurement of P-gp-mediated ^3H-digoxin transport and BCRP-mediated ^3H-estrone sulfate transport in Caco-2 cell monolayers, which express both P-gp and BCRP [20].
P-gp- and BCRP-mediated transport were measured by the transepithelial transport of their substrates (^3H-digoxin for P-gp and ^3H-estrone sulfate for BCRP) in Caco-2 cell monolayers. […] Caco-2 cells were cultured on membrane inserts (Corning Inc., Corning, NY, USA) for 21 days. Cell monolayers showing transepithelial electrical resistance values > 600 Ω.cm^2 were included in the experiment. […] The basolateral side was replaced with a transport buffer. The sample from the basolateral side was transferred to vials containing a liquid scintillation cocktail to measure radioactivity by a β-counter (Packard BioScience, Wellesley, MA, USA).

hMATE2 = biological target: T6, hMATE2 (Homo sapiens, UniProt Q86VL8); experiment: Cis-inhibition assay, 3H-MPP+ uptake in hMATE2-CHO-K1 cells; format: cell-based; details: pinocembrin, pH 8.5
T6 construct: host or cells: CHO-K1
Experimental: as §3, §4

hMATE1 = biological target: T7, hMATE1 (Homo sapiens, UniProt Q96FL8); experiment: Cis-inhibition assay, 3H-MPP+ uptake in hMATE1-CHO-K1 cells; format: cell-based; details: pinocembrin, pH 8.5
T7 construct: host or cells: CHO-K1
Experimental: as §3, §4

hOAT1 [2] = biological target: T8, hOAT1 (Homo sapiens, UniProt Q4U2R8); experiment: Pinocembrin treatment followed by 3H-PAH accumulation in hOAT1-MDCK cells; format: cell-based; details: 1, 10 and 50 μM for 24 h, concentration-dependent, compared with vehicle
T8 construct: host or cells: MDCK
T8 sequence (Q4U2R8 1-563): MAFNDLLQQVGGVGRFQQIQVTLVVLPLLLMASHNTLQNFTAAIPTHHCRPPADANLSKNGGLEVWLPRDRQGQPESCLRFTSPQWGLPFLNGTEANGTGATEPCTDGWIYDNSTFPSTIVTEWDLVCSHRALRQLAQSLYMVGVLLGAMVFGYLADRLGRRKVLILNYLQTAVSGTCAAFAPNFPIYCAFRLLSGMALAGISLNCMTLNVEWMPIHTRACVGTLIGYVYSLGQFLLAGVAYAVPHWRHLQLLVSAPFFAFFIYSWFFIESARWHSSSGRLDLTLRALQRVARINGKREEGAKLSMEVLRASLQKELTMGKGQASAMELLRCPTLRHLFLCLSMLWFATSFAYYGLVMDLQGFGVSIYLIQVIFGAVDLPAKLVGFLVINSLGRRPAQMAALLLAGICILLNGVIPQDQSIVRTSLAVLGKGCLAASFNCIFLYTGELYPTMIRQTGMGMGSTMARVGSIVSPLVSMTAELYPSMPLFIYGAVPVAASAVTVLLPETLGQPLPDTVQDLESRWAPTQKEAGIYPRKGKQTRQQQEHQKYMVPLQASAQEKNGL
Experimental: The hOAT1-MDCK cells and hOAT3-MDCK cells were treated with 1, 10, and 50 μM pinocembrin for 24 h, followed by a measurement of ^3H-PAH and ^3H-estrone sulfate cellular accumulation. […] The inhibitory effect of pinocembrin occurred in a concentration-dependent manner.
as §4, with “The cells were lyzed with 0.4 N NaOH for at least four hours.” left out

hOAT1 [3] = biological target: T8, hOAT1; experiment: Cis-inhibition assay, 3H-PAH uptake in hOAT1-MDCK cells; format: cell-based; details: 10 µM pinocembrin, compared with vehicle control
Experimental: as §3, §4

[4] = 80 mg intravenous injection, human subjects

T4 sequence (O15244 whole entry): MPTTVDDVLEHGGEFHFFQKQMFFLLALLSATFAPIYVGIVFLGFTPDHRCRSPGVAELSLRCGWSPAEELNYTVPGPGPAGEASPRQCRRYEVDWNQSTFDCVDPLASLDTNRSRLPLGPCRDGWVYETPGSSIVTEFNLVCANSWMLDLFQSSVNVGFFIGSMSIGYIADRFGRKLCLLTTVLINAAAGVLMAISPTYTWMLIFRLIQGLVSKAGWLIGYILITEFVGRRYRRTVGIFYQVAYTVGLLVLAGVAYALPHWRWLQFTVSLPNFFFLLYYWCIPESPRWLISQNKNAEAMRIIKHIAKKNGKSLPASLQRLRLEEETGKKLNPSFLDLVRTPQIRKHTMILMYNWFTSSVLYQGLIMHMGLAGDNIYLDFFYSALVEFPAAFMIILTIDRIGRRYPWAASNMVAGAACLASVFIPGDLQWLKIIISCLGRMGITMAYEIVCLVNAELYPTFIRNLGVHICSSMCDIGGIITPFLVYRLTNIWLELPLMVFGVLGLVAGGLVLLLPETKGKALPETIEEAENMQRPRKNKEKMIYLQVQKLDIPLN
T5 sequence (Q9UNQ0 whole entry): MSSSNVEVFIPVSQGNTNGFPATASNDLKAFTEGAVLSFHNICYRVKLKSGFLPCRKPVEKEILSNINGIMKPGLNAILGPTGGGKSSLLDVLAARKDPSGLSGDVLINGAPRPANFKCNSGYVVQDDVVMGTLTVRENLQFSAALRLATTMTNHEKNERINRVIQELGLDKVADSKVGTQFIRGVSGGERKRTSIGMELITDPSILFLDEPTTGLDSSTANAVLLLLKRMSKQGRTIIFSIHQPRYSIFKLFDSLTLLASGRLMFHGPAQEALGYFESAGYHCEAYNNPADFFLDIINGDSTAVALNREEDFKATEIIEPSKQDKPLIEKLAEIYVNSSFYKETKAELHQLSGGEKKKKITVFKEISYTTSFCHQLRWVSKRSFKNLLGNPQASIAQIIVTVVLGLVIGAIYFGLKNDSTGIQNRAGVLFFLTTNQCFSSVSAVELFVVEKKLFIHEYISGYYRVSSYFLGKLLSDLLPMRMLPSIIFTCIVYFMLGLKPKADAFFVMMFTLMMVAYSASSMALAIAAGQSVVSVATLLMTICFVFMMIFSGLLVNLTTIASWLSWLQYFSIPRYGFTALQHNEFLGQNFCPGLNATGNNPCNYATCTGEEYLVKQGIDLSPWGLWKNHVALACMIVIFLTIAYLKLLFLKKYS
T7 sequence (Q96FL8 whole entry): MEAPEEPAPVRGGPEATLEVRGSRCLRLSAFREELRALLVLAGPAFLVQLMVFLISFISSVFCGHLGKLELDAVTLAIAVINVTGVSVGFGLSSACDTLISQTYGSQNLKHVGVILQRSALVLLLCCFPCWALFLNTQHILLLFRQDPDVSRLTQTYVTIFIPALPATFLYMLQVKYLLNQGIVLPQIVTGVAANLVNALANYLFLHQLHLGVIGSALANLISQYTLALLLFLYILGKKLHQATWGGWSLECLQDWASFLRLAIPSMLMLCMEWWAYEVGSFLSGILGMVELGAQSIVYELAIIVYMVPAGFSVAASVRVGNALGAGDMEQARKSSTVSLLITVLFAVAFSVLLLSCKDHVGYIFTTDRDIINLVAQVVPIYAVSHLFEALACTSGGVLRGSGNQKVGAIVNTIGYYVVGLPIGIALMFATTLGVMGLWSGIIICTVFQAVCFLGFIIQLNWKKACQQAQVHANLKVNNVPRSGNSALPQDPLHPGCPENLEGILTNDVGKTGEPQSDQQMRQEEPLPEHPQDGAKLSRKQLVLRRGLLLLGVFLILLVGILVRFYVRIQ
T1 sequence (P11712 whole entry): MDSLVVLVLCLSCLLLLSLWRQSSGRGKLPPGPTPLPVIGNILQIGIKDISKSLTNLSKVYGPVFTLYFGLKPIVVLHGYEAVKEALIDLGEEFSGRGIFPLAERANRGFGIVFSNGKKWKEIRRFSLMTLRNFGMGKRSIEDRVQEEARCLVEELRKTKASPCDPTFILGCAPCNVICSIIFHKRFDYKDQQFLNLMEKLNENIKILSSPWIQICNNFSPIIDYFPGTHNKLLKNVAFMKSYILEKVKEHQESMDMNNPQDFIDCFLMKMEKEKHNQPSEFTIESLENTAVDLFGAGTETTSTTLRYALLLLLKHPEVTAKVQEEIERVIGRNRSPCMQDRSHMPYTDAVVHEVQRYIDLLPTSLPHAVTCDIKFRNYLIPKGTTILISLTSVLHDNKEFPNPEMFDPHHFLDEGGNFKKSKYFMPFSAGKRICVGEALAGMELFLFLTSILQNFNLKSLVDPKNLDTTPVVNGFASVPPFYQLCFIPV
T3 sequence (O15245 whole entry): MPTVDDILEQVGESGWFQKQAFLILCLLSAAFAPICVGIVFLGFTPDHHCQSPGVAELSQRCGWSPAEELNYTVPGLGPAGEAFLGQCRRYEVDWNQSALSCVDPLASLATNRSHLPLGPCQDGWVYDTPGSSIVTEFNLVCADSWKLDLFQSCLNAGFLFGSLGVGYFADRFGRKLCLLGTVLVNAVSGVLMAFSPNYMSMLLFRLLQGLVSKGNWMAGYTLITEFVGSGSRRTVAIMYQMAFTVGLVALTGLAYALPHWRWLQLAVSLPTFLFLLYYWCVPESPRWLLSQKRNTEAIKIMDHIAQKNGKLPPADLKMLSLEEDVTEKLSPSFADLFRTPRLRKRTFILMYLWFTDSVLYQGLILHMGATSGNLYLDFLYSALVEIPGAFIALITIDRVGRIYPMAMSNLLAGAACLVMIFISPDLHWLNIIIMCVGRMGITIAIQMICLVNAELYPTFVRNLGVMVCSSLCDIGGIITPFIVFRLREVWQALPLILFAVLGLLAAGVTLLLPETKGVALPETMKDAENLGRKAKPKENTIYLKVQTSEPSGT
T2 sequence (P20813 whole entry): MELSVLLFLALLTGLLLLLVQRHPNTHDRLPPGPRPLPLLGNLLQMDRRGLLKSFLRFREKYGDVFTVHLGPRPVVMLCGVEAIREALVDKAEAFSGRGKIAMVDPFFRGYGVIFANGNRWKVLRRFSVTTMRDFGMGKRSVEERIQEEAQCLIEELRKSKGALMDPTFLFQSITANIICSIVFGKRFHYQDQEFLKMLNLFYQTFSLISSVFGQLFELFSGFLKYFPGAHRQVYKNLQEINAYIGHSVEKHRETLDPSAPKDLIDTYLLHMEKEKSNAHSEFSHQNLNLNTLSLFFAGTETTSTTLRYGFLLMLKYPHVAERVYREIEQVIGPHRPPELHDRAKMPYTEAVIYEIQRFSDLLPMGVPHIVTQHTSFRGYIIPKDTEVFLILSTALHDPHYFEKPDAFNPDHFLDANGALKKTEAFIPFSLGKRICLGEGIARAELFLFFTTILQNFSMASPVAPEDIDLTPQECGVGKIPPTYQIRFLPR
T6 sequence (Q86VL8 whole entry): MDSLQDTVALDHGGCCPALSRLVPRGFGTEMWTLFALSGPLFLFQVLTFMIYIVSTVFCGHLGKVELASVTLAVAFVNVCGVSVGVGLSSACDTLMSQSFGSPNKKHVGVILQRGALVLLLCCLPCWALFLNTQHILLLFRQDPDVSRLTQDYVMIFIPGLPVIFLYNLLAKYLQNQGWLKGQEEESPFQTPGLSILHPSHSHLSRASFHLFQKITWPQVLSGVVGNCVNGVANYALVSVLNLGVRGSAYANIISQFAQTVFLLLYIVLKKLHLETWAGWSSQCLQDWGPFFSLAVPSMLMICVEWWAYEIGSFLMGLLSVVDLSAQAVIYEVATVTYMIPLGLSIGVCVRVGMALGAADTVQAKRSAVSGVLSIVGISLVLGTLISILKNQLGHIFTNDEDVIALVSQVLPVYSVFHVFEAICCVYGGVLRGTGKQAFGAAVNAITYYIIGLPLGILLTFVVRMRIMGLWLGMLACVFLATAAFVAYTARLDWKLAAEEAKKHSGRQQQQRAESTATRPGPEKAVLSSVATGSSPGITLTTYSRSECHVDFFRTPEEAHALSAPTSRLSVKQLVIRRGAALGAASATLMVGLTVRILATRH

O=C1C[C@@H](c2ccccc2)Oc2cc(O)cc(O)c21 [pinocembrin]
maximal plasma concentration ([1]; 40 mg intravenous injection): 0.6 µg/mL and 2.3 µM
maximal plasma concentration ([1]; 80 mg intravenous injection): 4.7 µM
T1/2 [1, 4]: 55 min
maximal plasma concentration (Cmax) [1, 4]: 1220 ng/mL
observed plasma concentration ([1]; phase I clinical trials): 3 to 10 µM
IC50 (OATP2B1): 8.9 µM
effect on the activity of CYP2D6 (CYP2D6): inhibits the activities
IC50 (CYP2C9): 345 µM
effect on OATP1A2 function (OATP1A2): weakly inhibits
IC50 (CYP2B6): 44 µM
effect on the P-gp in the blood–brain barrier (BBB) (P-gp): little effect
effect on the function of P-gp (P-gp): did not inhibit
hOCT1-mediated uptake of 3H-MPP+ (hOCT1): did not alter
hOCT2-mediated uptake of 3H-MPP+ (hOCT2): did not alter
transport of 3H-estrone sulfate from the apical to basolateral side (BCRP): did not affect
hMATE2-mediated uptake of 3H-MPP+ (hMATE2): did not alter
hMATE1-mediated uptake of 3H-MPP+ (hMATE1): did not alter
3H-PAH accumulation after pinocembrin treatment (hOAT1 [2]): significantly decreased
3H-PAH cellular accumulation (hOAT1 [3]): significantly decreased
